Measurements published in patent US7279575B2, “Pyrimidylpyrrole derivatives active as kinase inhibitors” (Pfizer Italia S.r.l., priority 2003, dated 2007).
Where “and” joins values, the source holds several entries; their conditions need not be identical. Equal entries are not always repeated. Structures can show the parent of a compound that is named as a salt.

biological target: cdk2/Cyclin A (Homo sapiens, UniProt P24941); assay: Inhibition assay of cdk2/Cyclin A activity (SPA, biotinylated histone H1); assay type: biochemical; conditions: histone H1 4 μM, ATP 10 μM, Cyclin A/CDK2 1.1 nM, 60 min at room temperature
Protocol: The inhibiting activity of putative cdk/cyclin inhibitors and the potency of selected compounds may be determined through a method of assay based on the use of the SPA technology (Amersham Pharmacia Biotech).
The assay consists of the transfer of radioactivity labelled phosphate moiety by the kinase to a biotinylated substrate. The resulting 33P-labelled biotinylated product is allowed to bind to streptavidin-coated SPA beads (biotin capacity 130 pmol/mg), and light emitted was measured in a scintillation counter.
Inhibition Assay of cdk2/Cyclin A Activity
Kinase reaction: 4 μM in house biotinylated histone H1 (Sigma # H-5505) substrate, 10 μM ATP (0.1 microCi P^33γ-ATP), 1.1 nM Cyclin A/CDK2 complex, inhibitor in a final volume of 30 μl buffer (TRIS HCl 10 mM pH 7.5, MgCl2 10 mM, DTT 7.5 mM+0.2 mg/ml BSA) were added to each well of a 96 U bottom. After incubation for 60 min at room temperature, the reaction was stopped by addition of 100 μl PBS buffer containing 32 mM EDTA, 500 μM cold ATP, 0.1% Triton X100 and 10 mg/ml streptavidin coated SPA beads. After 20 min incubation, 110 μL of suspension were withdrawn and transferred into 96-well OPTIPLATEs containing 100 μl of 5M CsCl. After 4 hours, the plates were read for 2 min in a Packard TOP-Count radioactivity reader.
(§1) IC50 determination: inhibitors were tested at different concentrations ranging from 0.0015 to 10 μM. Experimental data were analyzed by the computer program GraphPad Prizm using the four parameter logistic equation: y=bottom+(top−bottom)/(1+10^((loglC50−x)*slope)) where x is the logarithm of the inhibitor concentration, y is the response; y starts at bottom and goes to top with a sigmoid shape.

| SMILES | IC50 [nM] |
| --- | --- |
| CC(C)CNc1nccc(-c2cc3c([nH]2)CCNC3=O)n1 [2-[2-(isobutylamino)pyrimidin-4-yl]-1,5,6,7-tetrahydro-4H-pyrrolo[3,2-c]pyridin-4-one] | 50 |
| CCCNc1nccc(-c2cc3c([nH]2)CCNC3=O)n1 [2-[2-(propylamino)pyrimidin-4-yl]-1,5,6,7-tetrahydro4H-pyrrolo[3,2-c]pyridin-4-one] | 35 |

More lines, now with the values ahead:

| IC50 [nM] | SMILES |
| --- | --- |
| 220 | O=C1NCCc2[nH]c(-c3ccnc(NCC4CCCCC4)n3)cc21 [2-{2-[(cyclohexylmethyl)amino]pyrimidin-4-yl}-1,5,6,7-tetrahydro-4H-pyrrolo[3,2-c]pyridin-4-one] |
| 80 | O=C1NCCc2[nH]c(-c3ccnc(NCc4ccco4)n3)cc21 [2-{2-[(2-furylmethyl)amino]pyrimidin-4-yl}-1,5,6,7-tetrahydro-4H-pyrrolo[3,2-c]pyridin-4-one] |
| 20 | CC(=O)Nc1ccc(CNc2nccc(-c3cc4c([nH]3)CCNC4=O)n2)cc1 [N-[4-({[4-(4-oxo-4,5,6,7-tetrahydro-1H-pyrrolo[3,2-c]pyridin-2-yl)pyrimidin-2-yl]amino}methyl)phenyl]acetamide trifluoroacetate] |

biological target: Cdc7/Dbf4 (Homo sapiens, UniProt O00311); assay: Inhibition assay of Cdc7/Dbf4 activity (Dowex resin capture, 33P-ATP, MCM2 substrate); assay type: biochemical; conditions: MCM2 6 μM, ATP 2 μM, Cdc7/Dbf4 2 nM, 60 minutes at room temperature
Sequence (O00311 whole entry, species assumed): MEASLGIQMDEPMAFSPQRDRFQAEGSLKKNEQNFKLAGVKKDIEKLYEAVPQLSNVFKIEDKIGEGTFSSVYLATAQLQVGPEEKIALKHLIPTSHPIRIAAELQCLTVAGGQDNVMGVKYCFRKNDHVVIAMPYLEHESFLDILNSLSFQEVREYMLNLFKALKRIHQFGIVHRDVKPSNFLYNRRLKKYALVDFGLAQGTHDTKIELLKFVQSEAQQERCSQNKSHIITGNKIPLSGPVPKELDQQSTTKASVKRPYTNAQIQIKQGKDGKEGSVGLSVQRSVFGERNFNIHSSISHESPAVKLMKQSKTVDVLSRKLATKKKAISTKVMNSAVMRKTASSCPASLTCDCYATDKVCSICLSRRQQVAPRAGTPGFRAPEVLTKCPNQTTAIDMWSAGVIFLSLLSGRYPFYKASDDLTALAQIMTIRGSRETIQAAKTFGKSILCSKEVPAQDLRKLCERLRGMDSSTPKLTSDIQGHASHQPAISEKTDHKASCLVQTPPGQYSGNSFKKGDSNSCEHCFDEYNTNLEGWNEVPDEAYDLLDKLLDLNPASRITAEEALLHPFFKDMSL
Sequence (Q9UBU7 whole entry partner, species assumed): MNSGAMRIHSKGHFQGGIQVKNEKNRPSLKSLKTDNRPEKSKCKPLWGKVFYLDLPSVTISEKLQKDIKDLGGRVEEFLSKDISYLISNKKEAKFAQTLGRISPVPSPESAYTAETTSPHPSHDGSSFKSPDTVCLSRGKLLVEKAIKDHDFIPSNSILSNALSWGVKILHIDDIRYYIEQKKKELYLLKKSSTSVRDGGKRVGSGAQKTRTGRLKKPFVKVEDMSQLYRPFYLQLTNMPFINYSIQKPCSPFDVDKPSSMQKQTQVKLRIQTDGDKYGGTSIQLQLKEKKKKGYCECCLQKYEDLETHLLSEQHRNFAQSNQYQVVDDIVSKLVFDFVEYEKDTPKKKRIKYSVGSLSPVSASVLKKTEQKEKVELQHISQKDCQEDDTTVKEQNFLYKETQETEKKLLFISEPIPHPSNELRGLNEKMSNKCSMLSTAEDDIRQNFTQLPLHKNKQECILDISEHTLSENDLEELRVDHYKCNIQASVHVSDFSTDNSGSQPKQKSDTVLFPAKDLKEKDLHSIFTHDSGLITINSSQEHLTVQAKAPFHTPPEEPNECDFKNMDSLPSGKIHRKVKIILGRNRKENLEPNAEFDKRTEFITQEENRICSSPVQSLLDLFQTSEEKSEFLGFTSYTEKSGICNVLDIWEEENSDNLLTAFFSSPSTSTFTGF
Protocol: The inhibiting activity of putative Cdc7 inhibitors and the potency of selected compounds is determined through a method of assay based on the use of Dowex resin capture technology. The assay consists of the transfer of radioactivity labeled phosphate moiety by the kinase to an acceptor substrate. The resulting 33P-labeled product is separated from unreacted tracer, transferred into a scintillation cocktail and light emitted is measured in a scintillation counter.
Inhibition Assay of Cdc7/Dbf4 Activity
The inhibition assay of Cdc7/Dbf4 activity is performed according to the following protocol. The MCM2 substrate is trans-phosphorylated by the Cdc7/Dbf4 complex in the presence of ATP traced with γ^33-ATP. The reaction is stopped by addition of Dowex resin in the presence of formic acid. Dowex resin particles capture unreacted γ^33-ATP and drag it to the bottom of the well while ^33p phosphorylated MCM2 substrate remains in solution. The supernatant is collected, transferred into Optiplate plates and the extent of substrate phosphorylation is evaluated by β counting.
The inhibition assay of Cdc7/Dbf4 activity was performed in 96 wells plate according to the following protocol.
To each well of the plate were added: • 10 μl test compound (10 increasing concentrations in the nM to μM range to generate a dose-response curve). The solvent for test compounds contained 3% DMSO. (final concentration 1%) • 10 μl substrate MCM2 (6 μM final concentration), a mixture of cold ATP (2 μM final concentration) and radioactive ATP (1/5000 molar ratio with cold ATP). • 10 μl enzyme (Cdc7/Dbf4, 2 nM final concentration) that started the reaction. The buffer of the reaction consisted in 50 mM HEPES pH 7.9 containing 15 mM MgCl2, 2 mM DTT, 3 μM NaVO3, 2 mM glycerophosphate and 0.2 mg/ml BSA.
After incubation for 60 minutes at room temperature, the reaction was stopped by adding to each well 150 μl of Dowex resin in the presence of 150 mM formic acid. After another 60 min incubation, 50 μL of suspension were withdrawn and transferred into 96-well OPTIPLATEs containing 150 μl of MicroScint 40 (Packard); after 5-10 minutes shaking the plates were read for 1 min in a Packard TOP-Count radioactivity reader.
as §1, with “0.0005” for “0.0015”, “Assay Explorer” for “GraphPad Prizm”, “y=bottom+(top−bottom)/(1+10^((log|C50−x)*slope))” for “y=bottom+(top−bottom)/(1+10^((loglC50−x)*slope))”

| SMILES | IC50 |
| --- | --- |
| CC(C)C1CNC(=O)c2cc(-c3ccnc(N)n3)[nH]c21 (stereo not shown) [2-(2-aminopyrimidin-4-yl)-7-isopropyl-1,5,6,7-tetrahydro-4H-pyrrolo[3,2-c]pyridin-4-one] | 8 nM |
| CC1Cc2[nH]c(-c3ccnc(N)n3)cc2C(=O)N1 (stereo not shown) [2-(2-aminopyrimidin-4-yl)-6-methyl-1,5,6,7-tetrahydro-4H-pyrrolo[3,2-c]pyridin-4-one] | 26 nM |
| CCC1(CC)CNC(=O)c2cc(-c3ccnc(N)n3)[nH]c21 [2-(2-aminopyrimidin-4-yl)-7,7-diethyl-1,5,6,7-tetrahydro-4H-pyrrolo[3,2-c]pyridin-4-one] | 7 nM |
| O=C1NCCc2[nH]c(-c3ccnc(Nc4ccccc4)n3)cc21 [2-(2-phenylaminopyrimidin-4-yl)-1,5,6,7-tetrahydro-4H-pyrrolo[3,2-c]pyridin-4-one hydrochloride] | 7 nM |
| O=C1NCCc2[nH]c(-c3ccncn3)cc21 [2-pyrimidin-4-yl-1,5,6,7-tetrahydro-4H-pyrrolo[3,2-c]pyridin-4-one hydrochloride] | 19 nM |
| O=C1NCCc2[nH]c(-c3ncnc4[nH]cnc34)cc21 [2-(9H-purin-6-yl)-1,5,6,7-tetrahydro-4H-pyrrolo[3,2-c]pyridin-4-one hydrochloride] | 200 nM |
| CC1(C)Cc2[nH]c(-c3ccnc(N)n3)cc2C(=O)N1 [2-(2-aminopyrimidin-4-yl)-6,6-dimethyl-1,5,6,7-tetrahydro-4H-pyrrolo[3,2-c]pyridin-4-one hydrochloride] | 32 nM |
| CC(C)CC1Cc2[nH]c(-c3ccnc(N)n3)cc2C(=O)N1 (stereo not shown) [2-(2-aminopyrimidin-4-yl)-6-isobutyl-1,5,6,7-tetrahydro-4H-pyrrolo[3,2-c]pyridin-4-one] | 4 nM |
| Nc1nccc(-c2[nH]c3c(c2I)C(=O)NCC3)n1 [2-(2-aminopyrimidin-4-yl)-3-iodo-1,5,6,7-tetrahydro-4H-pyrrolo[3,2-c]pyridin-4-one] | 4 nM |
| CC1CNC(=O)c2cc(-c3ccnc(N)n3)[nH]c21 (racemic) [2-(2-aminopyrimidin-4-yl)-7-methyl-1,5,6,7-tetrahydro-4H-pyrrolo[3,2-c]pyridin-4-one] | 8 nM |
| O=C1NCC(c2ccccc2)c2[nH]c(-c3ccnc(Nc4ccccc4)n3)cc21 (stereo not shown) [2-(2-anilinopyrimidin-4-yl)-7-phenyl-1,5,6,7-tetrahydro-4H-pyrrolo[3,2-c]pyridin-4-one hydrochloride] | 29 nM |
| CC1(C)CNC(=O)c2cc(-c3ccnc(N)n3)[nH]c21 [2-(2-aminopyrimidin-4-yl)-7,7-dimethyl-1,5,6,7-tetrahydro-4H-pyrrolo[3,2-c]pyridin-4-one] | 2 nM |
| Nc1nccc(-c2cc3c([nH]2)C(c2ccccc2)CNC3=O)n1 (stereo not shown) [2-(2-aminopyrimidin-4-yl)-7-phenyl-1,5,6,7-tetrahydro-4H-pyrrolo[3,2-c]pyridin-4-one hydrochloride] | 15 nM |
| Nc1nccc(-c2cc3c([nH]2)CCNC3=O)n1 [2-(2-aminopyrimidin-4-yl)-1,5,6,7-tetrahydro-4H-pyrrolo[3,2-c]pyridin-4-one hydrochloride] | 11 nM |
| CCCNc1nccc(-c2cc3c([nH]2)CCNC3=O)n1 [2-[2-(propylamino)pyrimidin-4-yl]-1,5,6,7-tetrahydro4H-pyrrolo[3,2-c]pyridin-4-one] | 310 nM |
| O=C1NCCc2[nH]c(-c3ccnc(NCc4ccccc4)n3)cc21 [2-[2-(benzylamino)pyrimidin-4-yl]-1,5,6,7-tetrahydro-4H-pyrrolo[3,2-c]pyridin-4-one] | 270 nM |
| CC(C)C1Cc2[nH]c(-c3ccnc(N)n3)cc2C(=O)N1 (stereo not shown) [2-(2-aminopyrimidin-4-yl)-6-isopropyl-1,5,6,7-tetrahydro-4H-pyrrolo[3,2-c]pyridin-4-one] | 9 nM |

Second part, the molecule after the results:

| IC50 | SMILES |
| --- | --- |
| 5 nM | CC1CNC(=O)c2cc(-c3ccnc(N)n3)[nH]c21 (single isomer, unassigned) [(7R or 7S)-2-(2-aminopyrimidin-4-yl)-7-methyl-1,5,6,7-tetrahydro-4H-pyrrolo[3,2-c]pyridin-4-one] |
| 80 nM | CCOC(=O)Nc1nccc(-c2cc3c([nH]2)CCNC3=O)n1 [ethyl 4-(4-oxo-4,5,6,7-tetrahydro-1H-pyrrolo[3,2-c]pyridin-2-yl)pyrimidin-2-ylcarbamate] |
| 680 nM | O=C1NCCc2[nH]c(-c3ccnc(NCC4CCCCC4)n3)cc21 [2-{2-[(cyclohexylmethyl)amino]pyrimidin-4-yl}-1,5,6,7-tetrahydro-4H-pyrrolo[3,2-c]pyridin-4-one] |
| 32 nM | O=C1NCC(c2ccccc2)c2[nH]c(-c3ccncn3)cc21 (stereo not shown) [7-phenyl-2-pyrimidin-4-yl-1,5,6,7-tetrahydro-4H-pyrrolo[3,2-c]pyridin-4-one hydrochloride] |
| 74 nM and 87 nM | O=C1NCCc2[nH]c(-c3ccnc(NCc4ccco4)n3)cc21 [2-{2-[(2-furylmethyl)amino]pyrimidin-4-yl}-1,5,6,7-tetrahydro-4H-pyrrolo[3,2-c]pyridin-4-one] |
| 4 nM | CC1CNC(=O)c2cc(-c3ccnc(N)n3)[nH]c21 (single isomer, unassigned) [(7R or 7S)-2-(2-aminopyrimidin-4-yl)-7-methyl-1,5,6,7-tetrahydro-4H-pyrrolo[3,2-c]pyridin-4-on] |
| 90 nM | O=C1NCC(c2ccccc2)c2[nH]c(-c3ncnc4[nH]cnc34)cc21 (stereo not shown) [7-phenyl-2-(9H-purin-6-yl)-1,5,6,7-tetrahydro-4H-pyrrolo[3,2-c]pyridin-4-one hydrochloride] |
| 300 nM | O=C(Nc1nccc(-c2cc3c([nH]2)CCNC3=O)n1)c1ccccc1 [N-[4-(4-oxo-4,5,6,7-tetrahydro-1H-pyrrolo[3,2-c]pyridin-2-yl)pyrimidin-2-yl]benzamide] |
| 300 nM | CC(=O)Nc1ccc(CNc2nccc(-c3cc4c([nH]3)CCNC4=O)n2)cc1 [N-[4-({[4-(4-oxo-4,5,6,7-tetrahydro-1H-pyrrolo[3,2-c]pyridin-2-yl)pyrimidin-2-yl]amino}methyl)phenyl]acetamide trifluoroacetate] |
